In US4062853A, “Chloro-pyridinyloxymethyl esters of thiocyanic acid” (The Dow Chemical Company, priority 1973, dated 1977):
In brackets after ≈: the same amount, converted by molar mass.

Columns and labels:
Format in all cases: cell-based
Ceratocystis ips = assay: conventional agar dilution test, fungicidal activity, Ceratocystis ips; conditions: complete growth inhibition, read-out: Minimum Inhibitory Concentration
From the text: (§1) In representative operations, the products of the invention when tested for fungicidal activity using conventional agar dilution tests gave complete growth inhibition against the following organisms at the indicated concentrations in parts per million: […]

Pullularia pullulans = assay: conventional agar dilution test, fungicidal activity, Pullularia pullulans; conditions: complete growth inhibition, read-out: Minimum Inhibitory Concentration
From the text: as §1

Rhizopus nigricans = assay: conventional agar dilution test, fungicidal activity, Rhizopus nigricans; conditions: Rhizopus stolonifer, complete growth inhibition, read-out: Minimum Inhibitory Concentration
From the text: as §1

Trichoderma sp. 42 = assay: conventional agar dilution test, fungicidal activity, Trichoderma sp. 42; conditions: complete growth inhibition, read-out: Minimum Inhibitory Concentration
From the text: as §1

Candida albicans = assay: conventional agar dilution test, fungicidal activity, Candida albicans; conditions: complete growth inhibition, read-out: Minimum Inhibitory Concentration
From the text: as §1

Candida pelliculosa = assay: conventional agar dilution test, fungicidal activity, Candida pelliculosa; conditions: Hansenula anomala, complete growth inhibition, read-out: Minimum Inhibitory Concentration
From the text: as §1

[1] = test system: Trichophyton mentagrophytes; assay: conventional agar dilution test, fungicidal activity, Trichophyton mentagrophytes; conditions: complete growth inhibition, read-out: Minimum Inhibitory Concentration
From the text: as §1

Aspergillus terreus = assay: conventional agar dilution test, fungicidal activity, Aspergillus terreus; conditions: complete growth inhibition, read-out: Minimum Inhibitory Concentration
From the text: as §1

| Compound | MIC (Ceratocystis ips) | MIC (Pullularia pullulans) | MIC (Rhizopus nigricans) | MIC (Trichoderma sp. 42) | MIC (Candida albicans) | MIC (Candida pelliculosa) | MIC [1] | MIC (Aspergillus terreus) |
| --- | --- | --- | --- | --- | --- | --- | --- | --- |
| N#CSCOc1nc(Cl)c(Cl)cc1Cl [I, [(3,5,6-trichloro-2-pyridinyl)oxy]methyl thiocyanate] | 1 µg/mL (≈ 3.71 µM) | 10 µg/mL (≈ 37.1 µM) | 10 µg/mL (≈ 37.1 µM) | 10 µg/mL (≈ 37.1 µM) | 10 µg/mL (≈ 37.1 µM) | 10 µg/mL (≈ 37.1 µM) | 1 µg/mL (≈ 3.71 µM) | 1 µg/mL (≈ 3.71 µM) |
| N#CSCOc1c(Cl)c(Cl)nc(Cl)c1Cl [II, Thiocyanic acid, [(2,3,5,6-tetrachloro-4-pyridinyl)oxy]-methyl ester] | 10 µg/mL (≈ 32.9 µM) | 100 µg/mL (≈ 329 µM) | > 100 µg/mL | > 100 µg/mL | > 100 µg/mL | > 100 µg/mL | 1 µg/mL (≈ 3.29 µM) | 10 µg/mL (≈ 32.9 µM) |
| N#CSCOc1c(Cl)cnc(Cl)c1Cl [III, Thiocyanic acid, [(2,3,5-trichloro-4-pyridinyl)oxy]methyl ester] | 10 µg/mL (≈ 37.1 µM) | 1 µg/mL (≈ 3.71 µM) | 10 µg/mL (≈ 37.1 µM) | 10 µg/mL (≈ 37.1 µM) | 10 µg/mL (≈ 37.1 µM) | 10 µg/mL (≈ 37.1 µM) | 1 µg/mL (≈ 3.71 µM) | 1 µg/mL (≈ 3.71 µM) |
| N#CSCOc1nc(Cl)c(Cl)c(OCCl)c1Cl [IV, Thiocyanic acid, [(3,5,6-trichloro-4-(chloromethoxy)-2-pyridinyl)oxy]methylester] | 10 µg/mL (≈ 29.9 µM) | 10 µg/mL (≈ 29.9 µM) | 100 µg/mL (≈ 299 µM) | 10 µg/mL (≈ 29.9 µM) | 10 µg/mL (≈ 29.9 µM) | 10 µg/mL (≈ 29.9 µM) | 1 µg/mL (≈ 2.99 µM) | 10 µg/mL (≈ 29.9 µM) |
| N#CSCOc1nc(F)c(Cl)cc1Cl [V, Thiocyanic acid, [(3,5-dichloro-6-fluoro-2-pyridinyl)oxy]methyl ester] | 10 µg/mL (≈ 39.5 µM) | 10 µg/mL (≈ 39.5 µM) | 10 µg/mL (≈ 39.5 µM) | 10 µg/mL (≈ 39.5 µM) | 10 µg/mL (≈ 39.5 µM) | 10 µg/mL (≈ 39.5 µM) | 1 µg/mL (≈ 3.95 µM) | 1 µg/mL (≈ 3.95 µM) |
| N#CSCOc1cc(C(Cl)(Cl)Cl)cc(Cl)n1 [VI, Thiocyanic acid [(6-chloro-4-(trichloromethyl)-2-pyridinyl)-oxy]methyl ester] | 10 µg/mL (≈ 31.4 µM) | 10 µg/mL (≈ 31.4 µM) | 100 µg/mL (≈ 314 µM) | 100 µg/mL (≈ 314 µM) | 100 µg/mL (≈ 314 µM) | 100 µg/mL (≈ 314 µM) | 1 µg/mL (≈ 3.14 µM) | 1 µg/mL (≈ 3.14 µM) |
